Legend:
[1] = Antagonist activity at human CCR3 receptor in human eosinophil assessed as inhibition of eotaxin-induced chemotaxis
[2] = Antagonist activity at CCR3 receptor in cynomolgus monkey eosinophil assessed as as inhibition of chemotaxis
[3] = Antagonist activity at CCR3 receptor in mouse eosinophil assessed as as inhibition of chemotaxis

Compound | IC50 [1] [nM] | IC50 [2] [nM] | IC50 [3] [nM]
C[C@H](CC(=O)N1CCC[C@@H](Cc2ccc(F)cc2)C1)NC(=O)Nc1cccc(-c2nnnn2C)c1 | 0.2 | – | –
C[C@@H](CCN1CCC[C@@H](Cc2ccc(F)cc2)C1)NC(=O)Nc1cccc(-c2nnnn2C)c1 | > 1 | – | –
CC(=O)c1cc(NC(=O)N[C@H](C)CCN2CCC[C@@H](Cc3ccc(F)cc3)C2)cc(-c2nnnn2C)c1 | 0.02 | – | –
CC(=O)c1cc(NC(=O)N[C@H](C)CCN2CCC[C@@H](Cc3ccc(F)cc3)C2)cc(C(C)=O)c1 | 0.2 | – | –
Cc1cc(NC(=O)NCCCN2CCC[C@@H](Cc3ccc(F)cc3)C2)cc(-c2nnnn2C)c1 [1-{3-[(S)-3-(4-Fluoro-benzyl)-piperidin-1-yl]-propyl}-3-[3-methyl-5-(1-methyl-1H-tetrazol-5-yl)-phenyl]-urea] | 1 | – | –
Cn1nnnc1-c1cccc(NC(=O)NCCCN2CCC[C@@H](Cc3ccc(F)cc3)C2)c1 [1-{3-[(S)-3-(4-Fluoro-benzyl)-piperidin-1-yl]-propyl}-3-[3-(1-methyl-1H-tetrazol-5-yl)-phenyl]-urea] | 3.2 | – | –
C[C@@H](NC(=O)Nc1cccc(-c2nnnn2C)c1)[C@@H](O)CN1CCC[C@@H](Cc2ccc(F)cc2)C1 [1-{(1R,2S)-3-[(S)-3-(4-Fluoro-benzyl)-piperidin-1-yl]-2-hydroxy-1-methyl-propyl}-3-[3-(1-methyl-1H-tetrazol-5-yl)-phenyl]-urea] | 0.04 | 0.15 | 870
C[C@H](CCN1CCC[C@@H](Cc2ccc(F)cc2)C1)NC(=O)Nc1cccc(-c2nnnn2C)c1 | 1.1 | – | –
O=C(NCCCN1CCC[C@@H](Cc2ccc(F)cc2)C1)Nc1cc(-n2cccn2)cc(-n2cccn2)c1 | 5 | – | –
CCc1cc(NC(=O)N[C@H](C)CCN2CCC[C@@H](Cc3ccc(F)cc3)C2)cc(-c2nnnn2C)c1 | 0.02 | – | –
CC(=O)c1cc(NC(=O)NCCCN2CCC[C@@H](Cc3ccc(F)cc3)C2)cc(C(C)=O)c1 [(S)-1-(3-(3-(4-fluorobenzyl)piperidin-1-yl)propyl)-3-(3,5-diacetylphenyl)urea] | 3 | – | –
CC(=O)c1cc(NC(=O)N[C@@H](C)CCN2CCC[C@@H](Cc3ccc(F)cc3)C2)cc(C(C)=O)c1 | 60 | – | –
CC[C@H](CCN1CCC[C@@H](Cc2ccc(F)cc2)C1)NC(=O)Nc1cc(-c2nnnn2C)cc(C(C)(C)O)c1 | 0.1 | – | –
CC(=O)c1cccc(NC(=O)NCCCN2CCC[C@@H](Cc3ccc(F)cc3)C2)c1 [1-(3-Acetyl-phenyl)-3-{3-[(S)-3-(4-fluoro-benzyl)-piperidin-1-yl]-propyl}-urea] | 25 | – | –
CCC[C@H](CCN1CCC[C@@H](Cc2ccc(F)cc2)C1)NC(=O)Nc1cc(-c2nnnn2C)cc(C(C)(C)O)c1 | 0.011 | – | –
CC(C)c1cc(NC(=O)N[C@H](C)CCN2CCC[C@@H](Cc3ccc(F)cc3)C2)cc(-c2nnnn2C)c1 | 0.021 | – | –
C[C@H](CCN1CCC[C@@H](Cc2ccc(F)cc2)C1)NC(=O)Nc1cc(-n2cccn2)cc(-n2cccn2)c1 | 0.1 | – | –
CC(C)c1cc(NC(=O)NCCCN2CCC[C@@H](Cc3ccc(F)cc3)C2)cc(-c2nnnn2C)c1 | 0.3 | – | –

Reference: BindingDB's records for doi:10.1016/j.bmcl.2007.11.067 (Bristol-Myers Squibb, 2008)
